Measurements taken from patent publication US9550772B2, “Azaindole derivatives as multi kinase inhibitors” (ORIBASE PHARMA, priority 2012, dated 2017).
Like-named read-outs stand apart in the source and are kept apart here.

Columns and labels:
HUVEC cells = assay: In vitro cell proliferation assay (MTT); type: cell-based; details: Homo sapiens, 72 hr, read-out: EC50, anti-proliferative activity
Description: (§1) Cancer cell lines (5×10^3 cells per well) or HUVEC (1×10^4 cells per well) or HRMEC (1×10^4 cells per well) were distributed in 96-well plates and incubating in duplicate with escalating concentrations (10 nM to 3 μM) of compounds for 72 hr. Cell proliferation was measured using MTT (3[4,5-dimethylthiazol-2-yl]-2,5-diphenyltetrazolium bromide). The EC50 values were calculated from sigmoidal dose-response curves utilizing Prism 5.0 from Graph-Pad Software (GraphPad Software, La Jolla, Calif., USA), with values normalized to those of DMSO-treated control wells (0%) and 1% SDS control wells (100%).

HepG2 cell line = assay: In vitro cell proliferation assay (MTT); type: cell-based; details: Homo sapiens, HepG2, 72 hr, read-out: EC50, anti-proliferative activity
Description: as §1

HuCCT1 cell line = assay: In vitro cell proliferation assay (MTT); type: cell-based; details: Homo sapiens, HuCCT-1, HuCCT1, 72 hr, EC50 ≧ 1 μM, read-out: EC50, anti-proliferative activity
Description: as §1

BRAF = target: T1, BRAF (Homo sapiens, UniProt P15056); assay: In vitro kinase assay (Z'-LYTE, Invitrogen); type: biochemical; details: compound at 100 nM, ATP Km apparent, read-out: % of inhibition of the kinase compared to the control
T1 construct: purchased Invitrogen
Description: (§2) The inhibitory activity of the compounds on 7 kinases (BRAF, EGFR (ErbB1), EGFR (ErbB1) T790M L858R, FGFR2, KDR (VEGFR2), PDGFRA (PDGFR alpha), SRC) was evaluated by Invitrogen using the Z′-LYTE® technology. Briefly, the Z′-LYTE® biochemical assay employs a fluorescence-based, coupled-enzyme format and is based on the differential sensitivity of phosphorylated and non-phosphorylated peptides to proteolytic cleavage. The peptide substrate is labeled with two fluorophores—one at each end—that make up a FRET pair. A ratiometric method, which calculates the ratio (the Emission Ratio) of donor emission to acceptor emission after excitation of the donor fluorophore at 400 nm, is used to quantitate reaction progress.
(§3) The compounds are screened in 1% DMSO (final) in the well. For 10 point titrations, 3-fold serial dilutions are conducted from the starting concentration. All Peptide/Kinase Mixtures are diluted to a 2× working concentration in the appropriate Kinase Buffer. All ATP Solutions are diluted to a 4× working concentration in Kinase Buffer (50 mM HEPES pH 7.5, 0.01% BRIJ-35, 10 mM MgCl2, 1 mM EGTA). ATP Km apparent is previously determined using a Z′-LYTE® assay.
(§4) Each compound was incubated at a concentration of 100 nM and the tables 21 to 27 summarize the results obtained showing the inhibitory power of a compound.

EGFR (ErbB1) = target: T2, EGFR (ErbB1) (Homo sapiens, UniProt P00533); assay: In vitro kinase assay (Z'-LYTE, Invitrogen); type: biochemical; details: compound at 100 nM, ATP Km apparent, read-out: % of inhibition of the kinase compared to the control
T2 construct: purchased Invitrogen
T2 sequence (P00533 25-1210): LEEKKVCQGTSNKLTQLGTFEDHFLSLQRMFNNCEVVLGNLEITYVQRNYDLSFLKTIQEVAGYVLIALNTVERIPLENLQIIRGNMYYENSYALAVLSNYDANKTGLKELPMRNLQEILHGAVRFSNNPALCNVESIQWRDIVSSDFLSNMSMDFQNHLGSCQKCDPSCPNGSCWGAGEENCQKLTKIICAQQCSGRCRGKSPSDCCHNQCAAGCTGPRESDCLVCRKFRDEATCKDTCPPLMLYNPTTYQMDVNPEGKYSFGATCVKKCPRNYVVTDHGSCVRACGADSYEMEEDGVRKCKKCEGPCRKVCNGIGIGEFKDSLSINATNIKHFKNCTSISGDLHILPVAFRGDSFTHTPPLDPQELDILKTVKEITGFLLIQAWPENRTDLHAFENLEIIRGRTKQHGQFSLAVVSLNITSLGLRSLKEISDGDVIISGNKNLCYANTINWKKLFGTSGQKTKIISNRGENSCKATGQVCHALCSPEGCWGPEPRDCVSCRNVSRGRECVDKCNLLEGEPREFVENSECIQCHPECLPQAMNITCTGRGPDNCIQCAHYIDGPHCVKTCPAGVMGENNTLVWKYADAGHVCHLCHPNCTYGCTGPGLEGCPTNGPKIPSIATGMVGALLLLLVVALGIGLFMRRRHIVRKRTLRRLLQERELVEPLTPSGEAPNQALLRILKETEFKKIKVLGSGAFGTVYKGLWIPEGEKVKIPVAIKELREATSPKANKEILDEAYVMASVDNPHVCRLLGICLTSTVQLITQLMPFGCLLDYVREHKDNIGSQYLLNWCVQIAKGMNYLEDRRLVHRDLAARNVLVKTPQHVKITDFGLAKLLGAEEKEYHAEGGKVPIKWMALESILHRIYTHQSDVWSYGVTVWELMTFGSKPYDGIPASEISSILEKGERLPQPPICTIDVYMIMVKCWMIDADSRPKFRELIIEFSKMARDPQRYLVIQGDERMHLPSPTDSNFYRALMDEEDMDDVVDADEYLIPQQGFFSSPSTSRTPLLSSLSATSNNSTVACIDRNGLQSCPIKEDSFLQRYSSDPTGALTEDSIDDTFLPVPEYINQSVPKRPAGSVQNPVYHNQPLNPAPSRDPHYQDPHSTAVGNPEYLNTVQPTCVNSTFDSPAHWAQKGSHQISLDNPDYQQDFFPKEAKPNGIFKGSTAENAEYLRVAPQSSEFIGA
Description: as §2, §3, §4

EGFR (ErbB1) T790M L858R = target: T3, EGFR (ErbB1) T790M L858R (Homo sapiens, UniProt P00533, L858R/T790M); assay: In vitro kinase assay (Z'-LYTE, Invitrogen); type: biochemical; details: compound at 100 nM, ATP Km apparent, read-out: % of inhibition of the kinase compared to the control
T3 construct: purchased Invitrogen
Description: as §2, §3, §4

FGFR2 = target: T4, FGFR2 (Homo sapiens, UniProt P21802); assay: In vitro kinase assay (Z'-LYTE, Invitrogen); type: biochemical; details: compound at 100 nM, ATP Km apparent, read-out: % of inhibition of the kinase compared to the control
T4 construct: purchased Invitrogen
T4 sequence (P21802 22-821): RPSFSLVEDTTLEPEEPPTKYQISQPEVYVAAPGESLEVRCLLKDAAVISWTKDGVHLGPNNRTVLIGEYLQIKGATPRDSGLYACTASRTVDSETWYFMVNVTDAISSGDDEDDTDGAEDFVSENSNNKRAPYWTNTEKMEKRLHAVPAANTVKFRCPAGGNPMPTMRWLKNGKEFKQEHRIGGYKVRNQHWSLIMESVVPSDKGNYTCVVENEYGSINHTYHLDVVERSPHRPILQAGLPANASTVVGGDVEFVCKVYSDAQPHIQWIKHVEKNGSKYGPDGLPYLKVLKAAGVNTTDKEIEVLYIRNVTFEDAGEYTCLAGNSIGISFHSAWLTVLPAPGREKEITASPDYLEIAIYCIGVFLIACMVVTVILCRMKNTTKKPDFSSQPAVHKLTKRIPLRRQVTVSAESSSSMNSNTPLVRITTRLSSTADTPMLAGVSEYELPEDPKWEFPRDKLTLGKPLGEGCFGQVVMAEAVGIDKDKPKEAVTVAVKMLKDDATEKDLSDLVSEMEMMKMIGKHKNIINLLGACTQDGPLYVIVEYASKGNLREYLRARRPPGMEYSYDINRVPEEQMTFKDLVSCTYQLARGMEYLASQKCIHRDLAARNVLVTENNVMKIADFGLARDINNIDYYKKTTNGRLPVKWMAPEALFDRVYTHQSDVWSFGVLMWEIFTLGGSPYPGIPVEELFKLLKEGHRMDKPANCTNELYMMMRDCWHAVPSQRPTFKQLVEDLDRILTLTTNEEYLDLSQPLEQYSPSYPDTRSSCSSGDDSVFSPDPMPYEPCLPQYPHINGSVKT
Description: as §2, §3, §4

KDR (VEGFR2) = target: T5, KDR (VEGFR2) (Homo sapiens, UniProt P35968); assay: In vitro kinase assay (Z'-LYTE, Invitrogen); type: biochemical; details: compound at 100 nM, ATP Km apparent, read-out: % of inhibition of the kinase compared to the control
T5 construct: purchased Invitrogen
T5 sequence (P35968 20-1356): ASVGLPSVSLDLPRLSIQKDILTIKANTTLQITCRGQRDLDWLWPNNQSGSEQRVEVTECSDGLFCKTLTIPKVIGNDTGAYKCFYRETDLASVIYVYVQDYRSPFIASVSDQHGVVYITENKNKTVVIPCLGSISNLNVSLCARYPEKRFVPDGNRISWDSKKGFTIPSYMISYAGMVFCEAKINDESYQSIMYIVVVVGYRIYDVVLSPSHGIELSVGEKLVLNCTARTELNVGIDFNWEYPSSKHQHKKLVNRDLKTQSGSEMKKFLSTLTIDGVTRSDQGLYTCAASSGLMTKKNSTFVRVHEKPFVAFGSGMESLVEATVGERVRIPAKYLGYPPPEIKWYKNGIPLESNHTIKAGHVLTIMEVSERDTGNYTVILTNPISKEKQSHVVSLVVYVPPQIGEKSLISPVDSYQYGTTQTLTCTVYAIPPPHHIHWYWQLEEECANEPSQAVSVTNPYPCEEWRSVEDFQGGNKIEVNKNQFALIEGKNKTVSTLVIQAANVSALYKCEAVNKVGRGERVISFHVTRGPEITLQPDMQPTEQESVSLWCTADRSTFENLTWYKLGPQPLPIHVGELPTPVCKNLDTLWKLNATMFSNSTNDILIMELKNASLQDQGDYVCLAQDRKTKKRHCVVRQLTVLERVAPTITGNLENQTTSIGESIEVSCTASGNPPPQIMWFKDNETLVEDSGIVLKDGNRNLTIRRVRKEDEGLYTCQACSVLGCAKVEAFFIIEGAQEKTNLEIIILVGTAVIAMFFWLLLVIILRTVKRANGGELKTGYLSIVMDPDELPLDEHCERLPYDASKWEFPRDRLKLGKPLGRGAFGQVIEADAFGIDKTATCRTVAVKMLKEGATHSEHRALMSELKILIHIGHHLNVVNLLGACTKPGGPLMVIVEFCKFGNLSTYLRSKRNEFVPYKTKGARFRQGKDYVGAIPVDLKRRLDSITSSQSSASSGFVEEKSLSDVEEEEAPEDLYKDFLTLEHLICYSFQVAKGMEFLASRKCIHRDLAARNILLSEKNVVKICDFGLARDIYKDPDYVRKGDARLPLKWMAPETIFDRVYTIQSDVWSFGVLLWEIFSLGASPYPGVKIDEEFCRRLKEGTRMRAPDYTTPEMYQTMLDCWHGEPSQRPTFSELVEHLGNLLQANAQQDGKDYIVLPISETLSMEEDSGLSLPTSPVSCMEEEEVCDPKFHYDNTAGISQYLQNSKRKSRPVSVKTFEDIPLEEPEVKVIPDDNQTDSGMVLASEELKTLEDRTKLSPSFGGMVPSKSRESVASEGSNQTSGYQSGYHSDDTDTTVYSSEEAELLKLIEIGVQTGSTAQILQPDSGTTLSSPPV
Description: as §2, §3, §4

PDGFRA (PDGFR alpha) = target: T6, PDGFRA (PDGFR alpha) (Homo sapiens, UniProt P16234); assay: In vitro kinase assay (Z'-LYTE, Invitrogen); type: biochemical; details: compound at 100 nM, ATP Km apparent, read-out: % of inhibition of the kinase compared to the control
T6 construct: purchased Invitrogen
T6 sequence (P16234 24-1089): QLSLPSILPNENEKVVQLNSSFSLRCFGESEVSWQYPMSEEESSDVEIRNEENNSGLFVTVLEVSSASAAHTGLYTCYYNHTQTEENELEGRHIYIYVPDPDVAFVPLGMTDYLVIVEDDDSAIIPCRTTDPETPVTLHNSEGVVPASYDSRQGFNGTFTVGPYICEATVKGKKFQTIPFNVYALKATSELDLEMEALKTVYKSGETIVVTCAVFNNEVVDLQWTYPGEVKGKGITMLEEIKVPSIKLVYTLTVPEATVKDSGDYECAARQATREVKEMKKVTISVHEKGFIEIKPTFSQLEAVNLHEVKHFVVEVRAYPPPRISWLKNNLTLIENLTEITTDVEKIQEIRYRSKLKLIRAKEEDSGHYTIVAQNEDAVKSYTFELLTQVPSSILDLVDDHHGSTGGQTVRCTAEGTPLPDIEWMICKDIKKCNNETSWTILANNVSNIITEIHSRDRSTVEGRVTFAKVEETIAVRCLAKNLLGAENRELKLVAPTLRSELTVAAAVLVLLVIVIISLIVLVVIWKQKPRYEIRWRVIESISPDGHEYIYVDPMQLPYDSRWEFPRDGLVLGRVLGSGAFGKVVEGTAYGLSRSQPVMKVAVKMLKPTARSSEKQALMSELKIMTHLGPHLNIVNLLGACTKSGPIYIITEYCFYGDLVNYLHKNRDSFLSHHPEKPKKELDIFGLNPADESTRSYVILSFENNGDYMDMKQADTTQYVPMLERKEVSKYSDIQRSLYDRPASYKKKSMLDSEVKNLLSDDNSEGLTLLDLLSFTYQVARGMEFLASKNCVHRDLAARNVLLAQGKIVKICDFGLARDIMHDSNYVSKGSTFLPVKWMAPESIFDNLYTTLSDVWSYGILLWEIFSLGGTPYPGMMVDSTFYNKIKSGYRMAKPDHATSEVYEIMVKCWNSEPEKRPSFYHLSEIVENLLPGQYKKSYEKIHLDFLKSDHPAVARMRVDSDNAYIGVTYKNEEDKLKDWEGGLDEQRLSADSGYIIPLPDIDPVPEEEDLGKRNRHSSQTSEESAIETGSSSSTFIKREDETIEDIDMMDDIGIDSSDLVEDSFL
Description: as §2, §3, §4

SRC = target: T7, SRC (Homo sapiens, UniProt P12931); assay: In vitro kinase assay (Z'-LYTE, Invitrogen); type: biochemical; details: compound at 100 nM, ATP Km apparent, read-out: % of inhibition of the kinase compared to the control
T7 construct: purchased Invitrogen
T7 sequence (P12931 whole entry): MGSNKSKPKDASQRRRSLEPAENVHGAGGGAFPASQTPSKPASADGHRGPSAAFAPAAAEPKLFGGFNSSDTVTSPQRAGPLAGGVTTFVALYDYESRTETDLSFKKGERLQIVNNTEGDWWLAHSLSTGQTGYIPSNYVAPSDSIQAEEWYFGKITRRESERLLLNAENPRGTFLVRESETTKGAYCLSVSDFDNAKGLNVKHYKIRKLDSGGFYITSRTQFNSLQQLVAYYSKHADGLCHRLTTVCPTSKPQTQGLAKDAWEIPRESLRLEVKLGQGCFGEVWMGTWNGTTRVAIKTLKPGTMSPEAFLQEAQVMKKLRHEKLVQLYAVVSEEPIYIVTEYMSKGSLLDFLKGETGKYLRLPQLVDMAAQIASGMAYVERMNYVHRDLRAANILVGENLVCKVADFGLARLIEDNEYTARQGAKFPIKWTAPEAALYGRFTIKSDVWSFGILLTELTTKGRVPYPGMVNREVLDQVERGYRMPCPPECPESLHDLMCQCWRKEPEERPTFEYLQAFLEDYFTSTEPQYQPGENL
Description: as §2, §3, §4

HuH7 cell line = assay: In vitro cell proliferation assay (MTT); type: cell-based; details: Homo sapiens, Huh-7, HuH7, 72 hr, EC50 ≧ 1 μM, read-out: EC50, anti-proliferative activity
Description: as §1

A549 cell line = assay: In vitro cell proliferation assay (MTT); type: cell-based; details: Homo sapiens, A549, 72 h, read-out: EC50, anti-proliferative activity
Description: as §1

HeLa cell line = assay: In vitro cell proliferation assay (MTT); type: cell-based; details: Homo sapiens, 72 hr, read-out: EC50, anti-proliferative activity
Description: as §1

MDA-MB-231 cell line = assay: In vitro cell proliferation assay (MTT); type: cell-based; details: Homo sapiens, MDA-MB-231, 72 hr, read-out: EC50, anti-proliferative activity
Description: as §1

HuH6 Clone 5 cell line = assay: In vitro cell proliferation assay (MTT); type: cell-based; details: HUH-6-clone5, HuH6 Clone 5, 72 hr, EC50 ≧ 1 μM, read-out: EC50, anti-proliferative activity
Description: as §1

Compound	EC50 (HUVEC cells; EC50 ≧ 1 μM)	EC50 (HepG2 cell line; EC50 ≧ 1 μM)	EC50 (HuCCT1 cell line)	inhibition at 0.1 µM (BRAF)	inhibition at 0.1 µM (EGFR (ErbB1))	inhibition at 0.1 µM (EGFR (ErbB1) T790M L858R)	inhibition at 0.1 µM (FGFR2)	inhibition at 0.1 µM (KDR (VEGFR2))	inhibition at 0.1 µM (PDGFRA (PDGFR alpha))	inhibition at 0.1 µM (SRC)	EC50 (HuH7 cell line)	EC50 (A549 cell line; 100 nM < EC50 < 1 μM)	EC50 (HeLa cell line; 100 nM < EC50 < 1 μM)	EC50 (HepG2 cell line; 100 nM < EC50 < 1 μM)	EC50 (MDA-MB-231 cell line; 100 nM < EC50 < 1 μM)	EC50 (A549 cell line; EC50 ≧ 1 μM)	EC50 (HeLa cell line; EC50 ≧ 1 μM)	EC50 (MDA-MB-231 cell line; EC50 ≧ 1 μM)	EC50 (HUVEC cells; 100 nM < EC50 < 1 μM)	EC50 (HuH6 Clone 5 cell line)
Cc1nc(Nc2ncc(C(=O)Nc3c(C)cccc3Cl)s2)cc(N2CCN(CCO)CC2)n1 [Dasatinib, reference compound]	≥ 1 µM	≥ 1 µM	≥ 1 µM	–	–	–	–	–	–	–	–	–	–	–	–	–	–	–	–	–
CC(=O)c1cc2cc(C(=O)Nc3cc(NC(=O)c4cc(-n5cnc(C)c5)cc(C(F)(F)F)c4)ccc3C)cnc2[nH]1 [OR0723, 2-Acetyl-1H-pyrrolo[2,3-b]pyridine-5-carboxylic acid {2-methyl-5-[3-(4-methyl-imidazol-1-yl)-5-trifluoromethyl-benzoylamino]-phenyl}-amide]	–	–	–	< 50%	≥ 50%	< 50%	< 50%	< 50%	< 50%	< 50%	–	–	–	–	–	–	–	–	–	–
CC(=O)c1cc2cc(C(=O)Nc3cc(NC(=O)c4ccc(CN5CCN(C)CC5)c(C(F)(F)F)c4)ccc3C)cnc2[nH]1 [OR0724, 2-Acetyl-1H-pyrrolo[2,3-b]pyridine-5-carboxylic acid {2-methyl-5-[4-(4-methyl-piperazin-1-ylmethyl)-3-trifluoromethyl-benzoylamino]-phenyl}-amide]	–	–	–	< 50%	≥ 50%	≥ 50%	< 50%	< 50%	< 50%	< 50%	–	–	–	–	–	–	–	–	–	–
COC(=O)c1cc2cc(CNC(=O)c3cc(NC(=O)c4ccc(CN5CCC(N(C)C)C5)c(C(F)(F)F)c4)ccc3C)cnc2[nH]1 (stereo not drawn) [OR0726, 5-({5-[4-(3-Dimethylamino-pyrrolidin-1-ylmethyl)-3-trifluoromethyl-benzoylamino]-2-methyl-benzoylamino}-methyl)-1H-pyrrolo[2,3-b]pyridine-2-carboxylic acid methyl ester]	–	–	–	< 50%	< 50%	< 50%	< 50%	< 50%	< 50%	< 50%	–	–	–	–	–	–	–	–	–	–
COC(=O)c1cc2cc(CNC(=O)c3cc(NC(=O)c4ccc(CN5CCN(C)CC5)c(C(F)(F)F)c4)ccc3C)cnc2[nH]1 [OR0728, 5-({2-Methyl-5-[4-(4-methyl-piperazin-1-ylmethyl)-3-trifluoromethyl-benzoylamino]-benzoylamino}-methyl)-1H-pyrrolo[2,3-b]pyridine-2-carboxylic acid methyl ester]	–	–	–	< 50%	< 50%	< 50%	< 50%	< 50%	≥ 50%	< 50%	–	–	–	–	–	–	–	–	–	–
COC(=O)c1cc2cc(CNC(=O)c3cc(NC(=O)c4ccc(CN5CCN(C)CC5)cc4)ccc3C)cnc2[nH]1 [OR0730, 5-({2-Methyl-5-[4-(4-methyl-piperazin-1-ylmethyl)-benzoylamino]-benzoylamino}-methyl)-1H-pyrrolo[2,3-b]pyridine-2-carboxylic acid methyl ester]	–	–	–	< 50%	< 50%	< 50%	< 50%	< 50%	< 50%	< 50%	–	–	–	–	–	–	–	–	–	–
COC(=O)c1cc2cc(CCc3cc(NC(=O)c4ccc(CN5CCN(C)CC5)cc4)ccc3C)cnc2[nH]1 [OR0834, 5-(2-{2-Methyl-5-[4-(4-methyl-piperazin-1-ylmethyl)-benzoylamino]-phenyl}-ethyl)-1H-pyrrolo[2,3-b]pyridine-2-carboxylic acid methyl ester]	≥ 1 µM	≥ 1 µM	–	< 50%	≥ 50%	–	< 50%	≥ 50%	≥ 50%	≥ 50%	≥ 1 µM	–	–	–	–	–	–	–	–	–
CC(=O)c1cc2cc(CCc3cc(NC(=O)c4cc(N5CCN(C)CC5)cc(C(F)(F)F)c4)ccc3C)cnc2[nH]1 [OR1059, N-{3-[2-(2-Acetyl-1H-pyrrolo[2,3-b]pyridin-5-yl)-ethyl]-4-methyl-phenyl}-3-(4-methyl-piperazin-1-yl)-5-trifluoromethyl-benzamide]	≥ 1 µM	–	–	≥ 50%	≥ 50%	–	≥ 50%	≥ 50%	≥ 50%	≥ 50%	–	0.1 to 1 µM	0.1 to 1 µM	0.1 to 1 µM	0.1 to 1 µM	–	–	–	–	–
COC(=O)c1cc2cc(CSc3cccc(NC(=O)c4cccc(C(F)(F)F)c4)c3)cnc2[nH]1 [OR1066, 5-[3-(3-Trifluoromethyl-benzoylamino)-phenylsulfanylmethyl]-1H-pyrrolo[2,3-b]pyridine-2-carboxylic acid methyl ester]	≥ 1 µM	≥ 1 µM	–	< 50%	< 50%	–	< 50%	≥ 50%	≥ 50%	< 50%	–	–	–	–	–	≥ 1 µM	≥ 1 µM	≥ 1 µM	–	–
COC(=O)c1cc2cc(CCc3ccc(C)c(NC(=O)c4cc(-n5cnc(C)c5)cc(C(F)(F)F)c4)c3)cnc2[nH]1 [OR1068, 5-(2-{4-Methyl-3-[3-(4-methyl-imidazol-1-yl)-5-trifluoromethyl-benzoylamino]-phenyl}-ethyl)-1H-pyrrolo[2,3-b]pyridine-2-carboxylic acid methyl ester]	–	≥ 1 µM	–	< 50%	≥ 50%	–	≥ 50%	≥ 50%	≥ 50%	≥ 50%	–	–	–	–	–	≥ 1 µM	≥ 1 µM	≥ 1 µM	0.1 to 1 µM	–
COC(=O)c1cc2cc(C=Nc3cc(NC(=O)c4ccc(CN5CCN(C)CC5)c(C(F)(F)F)c4)ccc3C)cnc2[nH]1 [OR1070, 5-({2-Methyl-5-[4-(4-methyl-piperazin-1-ylmethyl)-3-trifluoromethyl-benzoylamino]-phenylimino}-methyl)-1H-pyrrolo[2,3-b]pyridine-2-carboxylic acid methyl ester]	≥ 1 µM	≥ 1 µM	–	< 50%	≥ 50%	–	≥ 50%	≥ 50%	≥ 50%	≥ 50%	–	–	–	–	–	≥ 1 µM	≥ 1 µM	≥ 1 µM	–	–
CNC(=O)c1cc(Oc2ccc(NC(=O)Nc3ccc(Cl)c(C(F)(F)F)c3)cc2)ccn1 [Sorafenib, reference compound]	–	1 to 3 µM	1 to 3 µM	–	–	–	–	–	–	–	1 to 3 µM	–	–	–	–	–	–	–	0.1 to 1 µM	1 to 3 µM
